Source: patent publication US20260265176A1, “SUBSTITUTED CYCLOHEXENE AND CYCLOHEXANE INHIBITORS OF ORNITHINE AMINOTRANSFERASE” (Northwestern University, priority 2023, published 2026)

How the values were obtained:
Assay type in all cases: biochemical
hGABA-AT = target: T1, hGABA-AT (Homo sapiens, UniProt P80404); assay: Inactivation of hGABA-AT, coupled enzyme assay (kinetic constants); conditions: for kinact/K1, hGABA-AT: inactivation of hGABA-AT, K1 and kinact not determinable
T1 construct: made in house; host or cells: Expi293 cells
T1 sequence (P80404 29-500): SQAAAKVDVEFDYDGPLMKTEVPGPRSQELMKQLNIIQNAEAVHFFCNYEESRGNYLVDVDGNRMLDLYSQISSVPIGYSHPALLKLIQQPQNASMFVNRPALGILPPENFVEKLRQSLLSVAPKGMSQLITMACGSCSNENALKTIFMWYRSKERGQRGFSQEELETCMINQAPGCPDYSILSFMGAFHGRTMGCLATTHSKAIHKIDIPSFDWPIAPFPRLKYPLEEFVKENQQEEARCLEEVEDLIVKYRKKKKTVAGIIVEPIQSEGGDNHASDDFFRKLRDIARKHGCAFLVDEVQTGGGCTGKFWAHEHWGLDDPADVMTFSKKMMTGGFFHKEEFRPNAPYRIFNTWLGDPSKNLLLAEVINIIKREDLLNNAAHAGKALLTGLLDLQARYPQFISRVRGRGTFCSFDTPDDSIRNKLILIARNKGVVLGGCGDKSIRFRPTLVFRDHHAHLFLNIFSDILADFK
Method: (§1) Recombinant human brain γ-aminobutyric acid aminotransferase (hGABA-AT) was expressed and purified according to literature procedures with slight modifications.^26 Briefly, pelleted Expi293 cells were resuspended into buffer A containing 50 mM K4O7P2 pH 8.6, 300 mM NaCl, and 100 μM PLP. The suspension was lysed using four repeat cycles of sonication (10 s on, 10 s off, 20% amplitude) on ice followed by the addition of 12.5 mM MgCl, 125 μM CaCl, and 5 mg of lyophilized DNase I. The lysate incubated on ice for 60 minutes with periodic inversions followed by a two step centrifugation procedure to pellet cell debris. Step one included centrifugation at 18000 rpm for 60 minutes at 4° C. followed by the collection of supernatant and a secondary step at 20000 rpm for 45 minutes. The supernatant was collected, and the sample was loaded into a disposable 0.45 μm bottle-top vacuum filter system to remove remaining cell debris. The resulting sample was then loaded onto a Co^2+ immobilized metal affinity chromatography column pre-equilibrated with buffer A. The column was washed with 40 mL of buffer A before hGABA-AT was eluted using a step-wise elution gradient of buffer A supplemented with 200 mM imidazole. The step-wise gradient totaled 5 steps of increasing imidazole concentration (1 mM, 2 mM, 5 mM, 100 mM, 200 mM). Individual 4 mL fractions containing hGABA-AT were combined and concentrated to a volume of 3 mL using a 30000 Da molecular weight cutoff (MWCO) Amicon Ultra centrifugal filter device. For further purification, the sample was loaded onto a HiLoad Superdex-200PG column (16 mm×600 mm) pre-equilibrated with buffer A and subjected to size exclusion chromatography at a flow rate of 0.25 mL/min. PYCR1 was purified according to previously published protocols.^38 Coupled enzyme assays for hGABA-AT, hOAT, Ala-AT, and Asp-AT were carried out according to previous procedures.^26

hOAT [1] = target: T2, hOAT (Homo sapiens, UniProt P04181); assay: Inactivation of hOAT, coupled enzyme assay (kinetic constants); conditions: for kinact / kinact/K1, hOAT / Ki: inactivation of hOAT; for Ki: read-out: K1, hOAT
T2 construct: made in house; host or cells: Escherichia coli BL21 (DE3)
T2 sequence (P04181 26-439): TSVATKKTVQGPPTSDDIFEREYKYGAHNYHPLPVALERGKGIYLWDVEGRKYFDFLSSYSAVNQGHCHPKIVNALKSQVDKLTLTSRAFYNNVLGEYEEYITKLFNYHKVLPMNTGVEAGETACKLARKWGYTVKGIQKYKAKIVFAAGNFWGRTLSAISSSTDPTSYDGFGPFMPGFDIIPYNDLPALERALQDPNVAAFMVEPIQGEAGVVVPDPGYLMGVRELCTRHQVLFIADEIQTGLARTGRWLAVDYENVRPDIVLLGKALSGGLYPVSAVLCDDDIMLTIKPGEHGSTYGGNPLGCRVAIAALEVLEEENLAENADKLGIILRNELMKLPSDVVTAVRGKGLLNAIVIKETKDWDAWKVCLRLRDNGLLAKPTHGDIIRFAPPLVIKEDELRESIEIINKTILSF
Method: as §1

hOAT [2] = target: T2, hOAT; assay: Transient-state stopped-flow spectrophotometry of hOAT reacting with inactivator; conditions: hyperbolic fit of kobs vs inactivator concentration, hOAT 17 μM, 20° C.
Method: Vertical arrows indicate the sequence of the observed spectra after initiating the experiment. […] A sample of hOAT (17 μM) was mixed with 17 (0-11 mM) using a stopped-flow spectrophotometer, and the reaction was observed between 300 and 800 nm for 150 sec using CCD detection. Several representative spectra from the data set are shown here.
FIG. 16C depicts the dependence of observed rate constants on the concentration of [5]. Fitting to a rectangular hyperbolic function (kobs=klimit[5]/K[5]+[5] returned an observed limiting rate constant of 0.20±0.01 s^−1 and a dissociation constant for reversible formation of the external aldimine of 2.9±0.4 mM.
The data collected using stopped-flow spectrophotometry serves as additional evidence for the proposed mechanism. […]
The subsequent increase in absorbance at 325 nm would thus report the accumulation of both the turnover and inhibition products, with no difference in rates.
Transient-State Kinetic Characterization of hOAT with […]: A sample of hOAT (17 μM) was mixed with 17 (0-11 mM) at 20° C. using a rapid mixing stopped-flow spectrophotometer (TgK Scientific) equipped with charge-coupled device (CCD) detection, allowing for the collection time-resolved spectra. […] A reconstructed time zero point was included in the data and was obtained by adding the spectrum of the enzyme and the spectrum of the inhibitor when measured separately. […]

hOAT [3] = target: T2, hOAT; assay: Time-dependent reactivation experiment (dialysis) of hOAT inactivated by 17
Method: Mass spectrometry, however, might differentiate those possibilities. To confirm irreversible inactivation of hOAT by 17, a time-dependent reactivation experiment (dialysis) was performed. […] Aliquots at different time intervals were collected and assayed to detect restored enzyme activity. […] It takes approximately 10 equiv of 17, however, to produce complete enzyme inactivation.
The dialysis experiment was conducted using previous protocols.^26,38

hOAT [4] = target: T2, hOAT; assay: Partition ratio / turnover number by titration of hOAT with inactivator; conditions: for partition ratio: turnover number minus one
Text: Determination of the Turnover Mechanism to Metabolites The partition ratio of an MBI is the ratio of compound that acts as a substrate relative to the compound that inactivates the enzyme. Ideally, plotting the enzyme activity remaining after inactivation versus equivalents of compound added will provide a straight line from 100 to 0% enzyme activity remaining. The x-intercept of this line would give the number of inactivator molecules required to inactivate a single enzyme active site (the turnover number). This number represents the total number of compound molecules that were engaged by the active site until the enzyme was inactivated. Of these compounds, only the final one will inactivate the enzyme, and the others will have been consumed as substrates. As a result, the partition ratio is the turnover number minus one (assuming a 1:1 stoichiometry of inactivator to enzyme in the inactivated complex).
The partition ratio of 17 was determined by titrating a known amount of hOAT with varying equivalents of inactivator (FIG. 7). The linear relationship of the remaining enzymatic activity was extrapolated to yield the exact number of equivalents of 17 to inactivate the enzyme completely. From this we determined the turnover number to be 4.27 and thus the partition ratio of 17 to be 3.27.
The turnover number for 17 was determined to be 2.2 by titrating a fixed amount of hOAT with varying equivalents of 17, measuring the remaining enzyme activities for the different equivalents of inhibitor, and employing the method of Pham et al.^32 (FIG. 24). The partition ratio, therefore, is 1.2.
The partition ratio was calculated using previous protocols.^26,28

[5] = listed as (±) 22, hydrochloride
[6] = from turnover number/partition ratio study, FIG. 24

Row | Compound | inhibition of hGABA-AT (in words) (hGABA-AT; hydrochloride) | inhibition of hGABA-AT (in words) (hGABA-AT; [5]) | inhibition of hOAT (in words) (hOAT [1]; hydrochloride) | inhibition of hOAT (in words) (hOAT [1]; [5]) | observed limiting rate constant (hOAT [2]) | Kd (hOAT [2]; read-out: dissociation constant for reversible formation of the external aldimine) | enzymatic activity recovered after dialysis (hOAT [3]; 72 hours of dialysis, hOAT treated with 0.6-10 equivalents of 17) | equivalents needed to produce complete enzyme inactivation (hOAT [3]; hOAT) | share of compound undergoing turnover to a product and PMP (hOAT [4]; [6]) | share of turnover resulting in inactivation (hOAT [4]; [6]) | turnover number (hOAT [4]; linear extrapolation of remaining activity, FIG. 7) | turnover number (hOAT [4]; method of Pham et al., FIG. 24) | partition ratio (hOAT [4]; FIG. 7) | partition ratio (hOAT [4]; FIG. 24) | kinact/K1, hGABA-AT (hGABA-AT) | kinact (hOAT [1]) | kinact/K1, hOAT (hOAT [1]) | Ki (hOAT [1]) | kinact/KI (hOAT [1]; read-out: overall efficiency (kinact/KI) against hOAT (converted)) | kinact/KI, fold less effective than that of 17 for hOAT (hOAT [1]; relative to 17)
1 | Cl.N[C@@H]1C[C@H](C(=O)O)CC(F)(F)C1 (racemic) [(±)22, cis-5-Amino-3,3-difluorocyclohexane-1-carboxylic acid hydrochloride] | Weak reversible inhibition at 10 mM | little or no inhibitory effect | No inhibition up to 10 mM | little or no inhibitory effect | – | – | – | – | – | – | – | – | – | – | – | – | – | – | – | –
2 | Cl.N[C@H]1C=C(C(=O)O)CC(F)(F)C1 [Compound 17, (R)-3-amino-5,5-difluorocyclohex-1-ene-1-carboxylic acid hydrochloride] | – | – | – | – | 0.20 ± 0.01 s⁻¹ | 2900 ± 400 µM | No enzymatic activity was recovered | approximately 10 equiv | 55% | 45% | 4.27 | 2.2 | 3.27 | 1.2 | 2.83 M⁻¹ s⁻¹ | 0.00467 s⁻¹ | 17.3 M⁻¹ s⁻¹ | 270 ± 70 µM | 17.3 M⁻¹ s⁻¹ | –
3 | Cl.N[C@H]1CC(C(=O)O)=CC(F)(F)C1 [Compound 17a, (S)-5-amino-3,3-difluorocyclohex-1-ene-1-carboxylic acid hydrochloride] | – | – | – | – | – | – | – | – | – | – | – | – | – | – | 2 M⁻¹ s⁻¹ | 0.0025 s⁻¹ | 1.83 M⁻¹ s⁻¹ | 1200 ± 400 µM | – | 10 fold
